ChEMBL document CHEMBL3045625, “Antifeedant properties and chemotaxonomic implications of sesquiterpene lactones and syringin from Rhaponticum pulchrum” (2006)

Assays:
Type in all cases: functional
[1] = system: Trogoderma granarium; assay: Antifeedant activity against Trogoderma granarium (khapra beetle) in compound treated wheat wafer disks assessed as antifeedant index by no-choice/two-choice assay
[2] = system: Tribolium confusum; assay: Antifeedant activity against Tribolium confusum (confused flour beetle) in compound treated wheat wafer discs assessed as antifeedant index by no-choice/two-choice assay
[3] = system: Sitophilus granarius; assay: Antifeedant activity against Sitophilus granarius (granary weevil) in compound treated wheat wafer disks assessed as antifeedant index by no-choice/two-choice assay

Row | Structure (SMILES) | Activity [1] | Activity [2] | Activity [3]
1 | C=C(C)C(=O)O[C@H]1CC(=C)[C@@H]2C[C@H](O)C(=C)[C@@H]2[C@H]2OC(=O)C(=C)[C@@H]21 [AGUERIN B] | 116.5 | 114.5 | 94.7
2 | C=C(CO)C(=O)O[C@H]1CC(=C)[C@@H]2C[C@H](O)C(=C)[C@@H]2[C@H]2OC(=O)C(=C)[C@@H]21 [CYNAROPICRIN] | 49.5 | 98.8 | 51.6
3 | C=C(CO)C(=O)O[C@H]1CC(=C)[C@@H]2C[C@H](O)[C@]3(CO3)[C@@H]2[C@H]2OC(=O)C(=C)[C@@H]21 [JANERIN] | 95 | 104 | 69
4 | COc1cc(/C=C/CO)cc(OC)c1O[C@@H]1O[C@H](CO)[C@@H](O)[C@H](O)[C@H]1O [SYRINGIN] | 61.7 | 125.6 | 134.4
